The values below come from patent publication US10077288B2, “Hydroxystatin derivatives for the treatment of arthrosis” (Merck Patent GmbH, priority 2012, dated 2018).

As a reminder, the IC50 is the concentration at which inhibition is half-maximal.

Data set [1] deals with T1, cathepsin D isolated from the human liver (Homo sapiens, UniProt P07339).
T1 construct: cathepsin D isolated from the human liver (Sigma-Aldrich); purchased Sigma-Aldrich; host or cells: human liver (tissue-derived, not recombinant)
The data set can be described thus: In-vitro fluorescence assay for identification of cathepsin D inhibitors. In kind it is biochemical. The conditions noted are these: human liver cathepsin D 1.4 nM, pH 5.5; read-out: CatD assay IC50-(M). In a few lines: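 Continuous FRET assay: human liver cathepsin D (1.4 nM final) preincubated 10 min at room temperature with serially diluted compound in 100 mM sodium acetate, 1.25% DMSO, 0.25% Chaps, pH 5.5. Started with 5 μM MCA-GKPILFFRLK(Dnp)d-R-NH2; fluorescence increase (ex 340/em 450 nm) over 60 min at room temperature compared with no-compound control.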

The nature of data set [2]: Stability in bovine synovial fluid. It is filed as in vitro ADME. The conditions noted are these: 1 μM, up to 48 h at 37° C. The procedure:
EXAMPLE 7: STABILITY OF THE COMPOUNDS ACCORDING TO THE INVENTION IN BOVINE SYNOVIAL FLUID
In the preparation of bovine explants (for the diffusion chamber or other assays), either cow hoof (metacarpal joints) or cow knee is used. The synovial fluid can be obtained from both joints. To this end, the synovial fluid is carefully removed from the open joint using a 10 ml syringe and a cannula and transferred into prepared 2 ml Eppendorf vessels. The Eppendorf vessels are labelled depending on the animal (cow passport is available). […] If this is the case, the synovial fluid will become a reddish colour and must consequently be discarded. The synovial fluid is basically highly viscous and clear to yellowish in colour. The removal together with a macroscopic analysis of the synovial fluid is documented.
In order to check the stability of individual compounds, a pool of four different bovine synovial fluids is mixed. To this end, about 1 ml per SF is used. The mixture is prepared directly in a 5 ml glass vessel. The SFs are mixed thoroughly, but carefully. No air bubbles or foam should form. To this end, a vortex unit is used at the lowest speed. The compounds to be tested are tested in an initial concentration (unless required otherwise) of 1 μM. After addition of the substance, the batch is again mixed thoroughly and carefully. For visual monitoring, all SF batches are photographed, and the pictures are filed in the eLabBio file for the corresponding experiment. […] The batches are incubated in the incubator for 48 h at 37° C. and 7.5% CO2.
The sampling is carried out after the pre-agreed times (unless required otherwise, see below). 200 μl of the SF are removed from the mixture per time and transferred directly into a 0.5 ml “low-binding” Eppendorf vessel. […]
The concentrations measured (ng/ml) are plotted against the time in a graph (GraphPad Prism®). The percentage stability of the substance is determined here. […]
All compounds measured remained stable (see Table 2 in Example 1).

T1 sequence (P07339 65-161 limits assumed): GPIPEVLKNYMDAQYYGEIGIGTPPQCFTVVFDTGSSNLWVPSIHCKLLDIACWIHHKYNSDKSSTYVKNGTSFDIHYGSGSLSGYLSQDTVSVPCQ
T1 sequence (P07339 169-412 limits assumed): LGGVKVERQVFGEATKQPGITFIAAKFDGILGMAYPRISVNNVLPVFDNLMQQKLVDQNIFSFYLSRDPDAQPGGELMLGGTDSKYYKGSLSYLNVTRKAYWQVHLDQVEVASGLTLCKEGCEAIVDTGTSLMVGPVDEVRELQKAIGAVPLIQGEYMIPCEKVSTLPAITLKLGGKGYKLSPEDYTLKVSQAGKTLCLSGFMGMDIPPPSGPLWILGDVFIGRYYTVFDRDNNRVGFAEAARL

As for `CC[C@H](C)[C@H](NC(=O)C[C@H](O)[C@H](Cc1ccccc1)NC(=O)[C@@H](NC(=O)CCc1ccccc1)C(C)C)C(=O)N[C@H](C(=O)O)C(C)C` [Compound 4, (S)-2-((2S,3S)-2-{(3S,4S)-3-hydroxy-4-[(S)-3-methyl-2-(3-phenyl-propionylamino)butyrylamino]-5-phenylpentanoylamino}-3-methylpentanoylamino)-3-methylbutyric acid], the IC50 in data set [1] was determined as 3e-08 M. The “Stability in synovial fluid” value in data set [2] was “stable”.
For `CC[C@H](C)[C@H](NC(=O)C[C@H](O)[C@H](Cc1ccccc1)NC(=O)[C@@H](NC(=O)CCCc1ccccc1)C(C)C)C(=O)N[C@H](C(=O)O)C(C)C` [Compound 5, (S)-2-((2S,3S)-2-{(3S,4S)-3-hydroxy-4-[(S)-3-methyl-2-(4-phenyl-butyrylamino)butyrylamino]-5-phenylpentanoylamino}-3-methylpentanoylamino)-3-methylbutyric acid], in that order: 3.41e-08 M and “stable”.
For `CC[C@H](C)[C@H](NC(=O)C[C@H](O)[C@H](Cc1ccccc1)NC(=O)[C@@H](NC(=O)Cc1cccc(OC)c1)C(C)C)C(=O)N[C@H](C(=O)O)C(C)C` [Compound 20, (S)-2-[(2S,3S)-2-((3S,4S)-3-hydroxy-4-{(S)-2-[2-(3-methoxyphenyl)-acetylamino]-3-methylbutyrylamino}-5-phenylpentanoylamino)-3-methylpentanoylamino]-3-methylbutyric acid], in that order: 1.2e-08 M and “stable”.
